In patent publication EP4617278A1, “NUCLEOTIDE ANALOG, AND COMPOSITION AND USE THEREOF” (priority 2022, dated 2024):

Each compound was assayed on RSV A2 virus (assay: RSV CPE assay). Details: human respiratory syncytial virus, HEp-2, 120 h, read-out: RSV A2 (Hep-2 cell) EC50.
Work on CC(C)(C)C(=O)O[C@H]1[C@@H](OC(=O)C(C)(C)C)[C@](C#N)(c2ccc3c(N)ncnn23)O[C@@H]1CO[P@](=O)(N[C@H](C=O)CC(=O)OC1(C2CCCC2)CCCC1)Oc1ccccc1 [Compound 61a, (2R,3R,4R,5R)-2-(4-aminopyrrolo[2,1-f][1,2,4]triazin-7-yl)-2-cyano-5-((((R)-(((S)-1,4-bicyclopentyloxy-1,4-dioxobutan-2-yl)amino)(phenoxy)phosphoryl)oxy)methyl)tetrahydrofuran-3,4-diyl bis(2,2-dimethylpropionate)] yielded an EC50 greater than 1000 nM.
CC(C)(C)C(=O)O[C@H]1[C@@H](OC(=O)C(C)(C)C)[C@](C#N)(c2ccc3c(N)ncnn23)O[C@@H]1CO[P@@](=O)(N[C@H](C=O)CC(=O)OC1(C2CCCC2)CCCC1)Oc1ccccc1 [Compound 61b, (2R,3R,4R,5R)-2-(4-aminopyrrolo[2,1-f][1,2,4]triazin-7-yl)-2-cyano-5-((((S)-(((S)-1,4-bicyclopentyloxy-1,4-dioxobutan-2-yl)amino)(phenoxy)phosphoryl)oxy)methyl)tetrahydrofuran-3,4-diyl bis(2,2-dimethylpropionate)] was tested, and the EC50 was 500 to 1000 nM.
With CCC(CC)COC(=O)C[C@H](N[P@@](=O)(OC[C@H]1O[C@@](C#N)(c2ccc3c(N)ncnn23)[C@H](OC(=O)C(C)C)[C@@H]1OC(=O)C(C)C)Oc1ccccc1)C(=O)OCC(CC)CC [Compound 62a, (2R,3R,4R,5R)-2-(4-aminopyrrolo[2,1-f][1,2,4]triazin-7-yl)-2-cyano-5-((((R)-(((S)-1,4-bis(2-ethylbutoxy)-1,4-dioxobutan-2-yl)amino)(phenoxy)phosphoryl)oxy)methyl)tetrahydrofuran-3,4-diyl bis(2-methylpropionate)] the EC50 was 200 to 500 nM.
CCC(CC)COC(=O)C[C@H](N[P@](=O)(OC[C@H]1O[C@@](C#N)(c2ccc3c(N)ncnn23)[C@H](OC(=O)C(C)C)[C@@H]1OC(=O)C(C)C)Oc1ccccc1)C(=O)OCC(CC)CC [Compound 62b, (2R,3R,4R,5R)-2-(4-aminopyrrolo[2,1-f][1,2,4]triazin-7-yl)-2-cyano-5-((((S)-(((S)-1,4-bis(2-ethylbutoxy)-1,4-dioxobutan-2-yl)amino)(phenoxy)phosphoryl)oxy)methyl)tetrahydrofuran-3,4-diyl bis(2-methylpropionate)] was tested, and the EC50 was less than 100 nM.
In the case of CC(C)C(=O)O[C@H]1[C@@H](OC(=O)C(C)C)[C@](C#N)(c2ccc3c(N)ncnn23)O[C@@H]1CO[P@@](=O)(N[C@@H](Cc1ccccc1)C(=O)OC1CCC1)Oc1ccccc1 [Compound 63b, (2R,3R,4R,5R)-2-(4-aminopyrrolo[2,1-f][1,2,4]triazin-7-yl)-2-cyano-5-((((S)-(((S)-1-cyclobutoxy-1-oxo-3-phenylpropan-2-yl)amino)(phenoxy)phosphoryl)oxy)methyl)tetrahydrofuran-3,4-diyl bis(2-methylpropionate)], the EC50 is reported as less than 100 nM.
For COC(C)(C)COC(=O)[C@H](Cc1ccccc1)N[P@@](=O)(OC[C@H]1O[C@@](C#N)(c2ccc3c(N)ncnn23)[C@H](OC(=O)C(C)C)[C@@H]1OC(=O)C(C)C)Oc1ccccc1 [Compound 64a, (2R,3R,4R,5R)-2-(4-aminopyrrolo[2,1-f][1,2,4]triazin-7-yl)-2-cyano-5-((((R)-(((S)-1-(2-methoxy-2-methylpropoxy)-1-oxo-3-phenylpropan-2-yl)amino)(phenoxy)phosphoryl)oxy)methyl)tetrahydrofuran-3,4-diyl bis(2-methylpropionate)], the EC50 was 100 to 200 nM.

Same assay, conditions: read-out: RSV A2 (Hep-2 cell) EC50; HEp-2 cells, RSV A2 virus, 5 days, CCK8
CC(C)C(=O)O[C@H]1[C@@H](OC(=O)C(C)C)[C@](C#N)(c2ccc3c(N)ncnn23)O[C@@H]1CO[P@](=O)(N[C@@H](Cc1ccccc1)C(=O)OC1CCC1)Oc1ccccc1 [Compound 63a] gave an EC50 of 200 to 500 nM.
